Where two headings read alike, the source gives them in different places.
Legend:
[1] = biological target: IRAK4 enzyme (Homo sapiens (Human), UniProt Q9NWZ3); assay: IRAK4 Biochemical Assay (TR-FRET, STK1 KinEASE)
How it was run: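 TR-FRET endpoint (KinEASE STK1): phosphopeptide detected with cryptate antibody and tracer after EDTA quench, ratio 665/615 nm, normalized to no-inhibitor wells as % inhibition. Reaction: 0.75 nM IRAK4, […] peptide, 500 μM ATP, pH 7.0 HEPES, 120 min room temperature, after 15 min compound preincubation with enzyme.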

[2] = system: TNFα; assay: IRAK4 Monocyte TNFα Cell Based Assay; parameters: species or system human; settings: read-out: EC50 MONO TNF HTRF
How it was run: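 TNFα release quantified by HTRF (cryptate/XL665 antibody pair, overnight at RT) after 1 h compound pre-incubation (0.1% DMSO) and 4 h LPS challenge at 50 pg/ml, 37 °C, 5,000 monocytes per well. Signal ratio normalised between unstimulated (0%) and stimulated (100%) controls.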

[3] = Homo sapiens, Monocyte, human monocytes, second part of Table 2, compounds 33-343, unit inferred
[4] = second part of Table 2, compounds 33-343, unit inferred, read-out: IC50 IRAK4-HTBS

IRAK4 enzyme, sequence (Q9NWZ3 whole entry): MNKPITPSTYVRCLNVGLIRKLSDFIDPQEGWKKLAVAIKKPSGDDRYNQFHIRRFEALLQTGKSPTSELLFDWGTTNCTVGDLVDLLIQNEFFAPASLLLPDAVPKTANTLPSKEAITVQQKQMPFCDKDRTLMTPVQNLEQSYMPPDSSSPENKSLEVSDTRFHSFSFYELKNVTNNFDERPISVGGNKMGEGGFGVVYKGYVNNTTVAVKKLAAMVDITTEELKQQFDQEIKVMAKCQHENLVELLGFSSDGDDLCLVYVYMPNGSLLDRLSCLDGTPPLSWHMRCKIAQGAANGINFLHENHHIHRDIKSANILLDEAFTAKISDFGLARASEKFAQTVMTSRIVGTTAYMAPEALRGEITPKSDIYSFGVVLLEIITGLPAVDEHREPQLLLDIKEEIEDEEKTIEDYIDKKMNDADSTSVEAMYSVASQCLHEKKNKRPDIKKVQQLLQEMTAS

IC50 [1, 4] [nM] | EC50 ([2]; human monocytes, second part of Table 2, compounds 33-343, unit inferred) [nM] | Structure (SMILES) | IC50 [1] [nM] | EC50 [2, 3] [nM] | EC50 ([2]; Homo sapiens, Monocyte) [nM]
– | – | CC(=O)N[C@@H]1CCCN(c2nnc(-c3cnc(-c4ccc5cc(C#N)cnn45)cc3NC(C)C)s2)C1 [Example 296, (R)-N-(1-(5-(6-(3-cyanopyrrolo[1,2-b]pyridazin-7-yl)-4-(isopropylamino)pyridin-3-yl)-1,3,4-thiadiazol-2-yl)piperidin-3-yl)acetamide] | 1.02 | 1000 | –
– | – | CC(C)Nc1cc(-c2ccc3cc(C#N)cnn23)ncc1-c1nnc([C@H]2CC[C@H](NC(=O)C3(C)COC3)CC2)s1 [Example 314, N-((1r,4r)-4-(5-(6-(3-cyanopyrrolo[1,2-b]pyridazin-7-yl)-4-(isopropylamino)pyridin-3-yl)-1,3,4-thiadiazol-2-yl)cyclohexyl)-3-methyloxetane-3-carboxamide] | 0.55 | 10.1 | –
– | – | CC(C)Nc1cc(-c2ccc3cc(C#N)cnn23)ncc1-c1nnc(N2CCOC(F)(F)C2)s1 [Example 167, 7-(5-(5-(2,2-difluoromorpholino)-1,3,4-thiadiazol-2-yl)-4-(isopropylamino)pyridin-2-yl)pyrrolo[1,2-b]pyridazine-3-carbonitrile] | 1.81 | 1000 | –
– | – | CC(=O)NC1CCC2(CC1)CN(c1nnc(-c3cnc(-c4ccc5cc(C#N)cnn45)cc3NC(C)C)s1)C2 [Example 69, N-(2-(5-(6-(3-cyanopyrrolo[1,2-b]pyridazin-7-yl)-4-(isopropylamino)pyridin-3-yl)-1,3,4-thiadiazol-2-yl)-2-azaspiro[3.5]nonan-7-yl)acetamide] | 1.16 | 11.8 | –
0.57 | 4.2 | CC(C)(O)[C@H]1C[C@@H]1c1nnc(-c2cnc(-c3ccc4cc(C#N)cnn34)cc2NC2COC2)s1 (single isomer, unassigned; isomer 1) [136 Isomer 1] | – | – | –
– | – | CC(C)Nc1cc(-c2ccc3cc(C#N)cnn23)ncc1-c1nnc(N2CC3CC(C2)N3C(=O)C(C)(C)O)s1 [Compound 273, 7-(5-(5-(6-(2-hydroxy-2-methylpropanoyl)-3,6-diazabicyclo[3.1.1]heptan-3-yl)-1,3,4-thiadiazol-2-yl)-4-(isopropylamino)pyridin-2-yl)pyrrolo[1,2-b]pyridazine-3-carbonitrile] | 0.68 | – | 4.1
– | – | CC(=O)NC1CC=C(c2nnc(-c3cnc(-c4ccc5cc(C#N)cnn45)cc3NC(C)C)s2)CC1 (centres unmarked) [Example 313, N-(4-(5-(6-(3-cyanopyrrolo[1,2-b]pyridazin-7-yl)-4-(isopropylamino)pyridin-3-yl)-1,3,4-thiadiazol-2-yl)cyclohex-3-en-1-yl)acetamide] | 1.47 | 48.6 | –
1.01 | – | CC(C)Nc1cc(-c2ccc3cc(C#N)cnn23)ncc1-c1nnc(CCN)s1 [Example 212, 7-(5-(5-(2-aminoethyl)-1,3,4-thiadiazol-2-yl)-4-(isopropylamino)pyridin-2-yl)pyrrolo[1,2-b]pyridazine-3-carbonitrile] | – | 305 | –
– | – | CC(=O)N[C@@H]1[C@@H]2CC[C@H]1N(c1nnc(-c3cnc(-c4ccc5cc(C#N)cnn45)cc3NC(C)C)s1)C2 [Example 137, N-((1R,4R,7R)-2-(5-(6-(3-cyanopyrrolo[1,2-b]pyridazin-7-yl)-4-(isopropylamino)pyridin-3-yl)-1,3,4-thiadiazol-2-yl)-2-azabicyclo[2.2.1]heptan-7-yl)acetamide] | 0.85 | 6.5 | –
– | – | CC(C)Nc1cc(-c2ccc3cc(C#N)cnn23)ncc1-c1nnc(N2CC3CCC(C2)N3C(=O)C2CC2)s1 [Compound 263, 7-(5-(5-(8-(cyclopropanecarbonyl)-3,8-diazabicyclo[3.2.1]octan-3-yl)-1,3,4-thiadiazol-2-yl)-4-(isopropylamino)pyridin-2-yl)pyrrolo[1,2-b]pyridazine-3-carbonitrile] | 1.08 | – | 5.1
